The source of these data is patent US12612392B2, “Compound, pharmaceutical compositions containing same, synthesis method therefor and use thereof” (SHENZHEN ZHONGGE BIOLOGICAL TECHNOLOGY CO., LTD., priority 2022, dated 2026).

One may read the half-life as the time needed for the level to fall by half in the phase considered. A higher half-life goes with slow loss.

Structures are written as SMILES.

The test system of one data set is model animals. The conditions noted are these: oral administration for three days; cited from earlier work.
The test system of the next data set is mouse models. The note with it: cited from earlier work.
A short description of data set [1]: In vitro liver microsome stability. Type of data set: in vitro ADME. The conditions noted are these: liver microsomes, NADPH, 37° C. The method, then:
A 5 mM MgCl2 100 mM K-Mg buffer solution was pre-heated. 5 μL of a 10 mM compound and a reference stock solution were added to 95 μL of acetonitrile (ACN) to prepare a spiked solution. 1.5 μL of a 500 µM spiked solution and 18.75 μL of 20 mg/mL liver microsomes were added to 479.8 μL of the K-Mg buffer solution. NADPH was dissolved in the K-Mg-buffer solution to prepare an NADPH stock solution ([…]). At different time points (0, 5, 15, 30 and 45 minutes), 30 μL of a 1.5 μM spiked solution containing the microsomes was evenly dropped into an assay plate. The plate was preincubated at 37° C. for 5 minutes. At 0 min, 200 μL of ACN containing IS (internal standard, tolbutamid/terfenadine) was added to the wells, and then 15 μl of the NADPH stock solution (6 mM) was added. For other time points, 15 μL of the NADPH stock solution (6 mM) was added to the wells to initiate the reaction and start the timing. At 5, 15, 30 and 45 min, the reaction was stopped by adding 200 μL of ACN containing IS to the corresponding wells of the plate. After quenching, the plate was shaken at 600 rpm for 10 minutes and then centrifuged at 4000 rpm for 50 minutes. 80 μL of the supernatant from each well was transferred to a 96-well sample plate containing 160 μL of pure water for UPLC/MS/MS analysis.
On the technique in general: Microsomes from liver hold many membrane-bound enzymes, among them those of drug oxidation.

The test system of a further data set is healthy participants. The conditions noted are these: Phase 1, healthy participants; cited from earlier work.

For the compound `NC(CO)(CO)CO.O=C(COc1ccc(Cl)c(F)c1)NC12CCC(NC(=O)COc3ccc(Cl)c(F)c3)(CC1)[C@@H](OCOP(=O)([O-])O)C2.[Na+]` [ABBV-CLS-7262], the “brain function of model animals” value in the data set on model animals is given as “restored to youthful levels”.

For `O=C(COc1ccc(Cl)cc1)NC1CCC(NC(=O)COc2ccc(Cl)cc2)CC1` (stereo not shown) [ISRIB], in the data set on mouse models, the “long-term memory in mouse models” value was “improve long-term memory”.

`O=C(c1ccc(F)cc1)C1CCN(CCn2c(=O)[nH]c3ccccc3c2=O)CC1` [Ketanserin, reference compound] came in with a half-life at 1 µM in data set [1] of 36.8 min. Regarding `O=C(COc1ccc(Cl)cc1)NC12CC(c3nnc([C@H]4C[C@@H](OC(F)(F)F)C4)o3)(C1)C2` [DNL-343], the safety and tolerability result with healthy participants was “demonstrated its safety and tolerability”.
